# From US6077519A, “Methods for isolation and use of T cell epitopes eluted from viable cells in vaccines for treating cancer patients” (University of Pittsburgh, priority 1997, dated 2000)
# Entries after “also recorded” stand apart in the source; their conditions may differ. Ends that are not written are not given here.
# B1: recombinant murine interleukin 12 (protein, UniProt P43431 23-215; P43432 23-335, looked up)
# Interleukin-12 subunit alpha: RVIPVSGPARCLSQSRNLLKTTDDMVKTAREKLKHYSCTAEDIDHEDITRDQTSTLKTCLPLELHKNESCLATRETSSTTRGSCLPPQKTSLMMTLCLGSIYEDLKMYQTEFQAINAALQNHNHQQIILDKGMLVAIDELMQSLNHNGETLRQKPPVGEADPYRVKMKLCILLHAFSTRVVTINRVMGYLSSA
# Interleukin-12 subunit beta: MWELEKDVYVVEVDWTPDAPGETVNLTCDTPEEDDITWTSDQRHGVIGSGKTLTITVKEFLDAGQYTCHKGGETLSHSHLLLHKKENGIWSTEILKNFKNKTFLKCEAPNYSGRFTCSWLVQRNMDLKFNIKSSSSSPDSRAVTCGMASLSAEKVTLDQRDYEKYSVSCQEDVTCPTAEETLPIELALEARQQNKYENYSTSFFIRDIIKPDPPKNLQMKPLKNSQVEVSWEYPDSWSTPHSYFSLKFFVRIQRKKEKMKETEEGCNQKGAFLVEKTSTEVQCKGGNVCVQAQDRYYNSSCSKWACVPCRVRS
# Legend:
# HLA-A2 [1] = target: T1, HLA-A2 (Homo sapiens, UniProt P04439); assay: HLA-A2 stabilization assay on T2 cells; format: binding; settings: MA2.1
# T1 construct: peptide stabilization read with MA2.1 by flow cytometry
# T1 sequence (P04439 25-365): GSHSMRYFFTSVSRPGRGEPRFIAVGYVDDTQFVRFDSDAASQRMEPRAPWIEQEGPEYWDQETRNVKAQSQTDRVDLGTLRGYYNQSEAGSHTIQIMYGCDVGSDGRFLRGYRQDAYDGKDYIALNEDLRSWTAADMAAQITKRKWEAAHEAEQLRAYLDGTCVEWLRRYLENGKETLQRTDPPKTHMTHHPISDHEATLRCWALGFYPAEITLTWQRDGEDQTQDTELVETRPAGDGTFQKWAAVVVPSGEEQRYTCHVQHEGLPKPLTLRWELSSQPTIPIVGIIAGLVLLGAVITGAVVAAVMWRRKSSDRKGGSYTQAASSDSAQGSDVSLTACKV
# T1 sequence (P61769 21-119 partner): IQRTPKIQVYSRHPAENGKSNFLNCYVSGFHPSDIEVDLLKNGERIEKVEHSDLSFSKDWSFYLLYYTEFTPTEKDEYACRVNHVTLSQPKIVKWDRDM
# Mel 624 [2] = assay: induction of anti-melanoma CTL from normal donor PBMC by peptide-pulsed autologous DC, lysis of Mel 624; format: cell-based, human; settings: for Normal PBL Response (responders/donors): lysis of Mel 624 >20% at E:T 10:1, >80% inhibited by BB7.2; for Peak week of CTL reactivity, Normal PBL / number of stimulations to induce anti-melanoma CTL: normal donors; for lysis of Mel 624 by induced anti-melanoma CTL: E:T 10:1, normal donors
# Procedure: Peripheral blood mononuclear cells ("PBMC") were obtained after density centrifugation on Ficoll-Hypaque gradients per the manufacturer's protocol (LSM, Organon-Teknika, Durham, N.C.). […] Non-adherent cells were frozen in liquid nitrogen in 90% fetal bovine serum/10% DMSO and were retained as T cell enriched responder populations. Plastic adherent cells were cultured for 5-7 days in AIM-V medium supplemented with 1000 U rIL-4/ml+1000 U rGM-CSF/ml at 37° C., 5% CO2 and served as the source of autologous dendritic cells. No medium was added or removed during this culture period. […] Gradient interface cells were harvested, washed with HBSS, and used in phenotypic and functional assays, as outlined below. Cells generated in this way were determined to be greater than 90% DC based on morphology and the expression of a CD1a+, CD1b+, CD1c+, CD3-, CD14-, CD16-, CD20-, CD40+, CD80+, CD83+, CD86+, MHC class II+phenotype assessed by flow cytometry.
# (§1) Plastic non-adherent DC (1-2×10^6) were harvested from IL-4+GM-CSF cultures on days 7, 14, 21, and 28, and washed twice with HBSS. […] Peptide-pulsing (10 μM final peptide concentration) was allowed to proceed for 2 hours at 37° C., at which time, the cells were washed twice with HBSS, resuspended in 1 ml of AIM-V and irradiated (2500 rad) using a cesium source. Day 7 peptide-pulsed DC were used to "prime" freshly-thawed, autologous PBMC (plastic adherent depleted) responders at a 20:1 responder-to-stimulator ratio. Responding T cells were restimulated weekly (for 4 weeks) using irradiated, peptide-pulsed autologous DC at a 20:1 responder-to-restimulator ratio in AIM-V medium containing 60 IU/ml rhIL-2 (Chiron, Emeryville, Calif.).
# (§2) Four hour chromium release assays were performed as described previously. Target cells were labeled with 100 μCi (Na2^51 CrO4, Dupont-New England Nuclear, Bedford, Mass.) at 37° C. for 1-2 hours prior to being washed three times with HBSS. 10^4 51 Cr-labeled cells were added to each target well±effector cells for 4 h, 37° C., 5% CO2 in a total volume of 200 μl.
# PBMC responder T cells derived from normal donors (n=12) were repetitively stimulated weekly for 1-4 weeks with irradiated, autologous cultured dendritic cells pre-pulsed with either no peptide or individually pulsed with the previously identified, HLA-A2-presented melanoma peptides listed in Table 9, below.
# Autologous, cultured d7 IL-4+GM-CSF PB-DC were pulsed with the indicated peptides for 2h at room temperature prior to washing and use as stimulators for CTL induction in vitro. […] 12 HLA-A2+ normal donors and 10 HLA-A2+ patients with metastatic melanoma were screened. […] Peak week of CTL reactivity is noted in parentheses.
# Mel 624 [3] = assay: induction of anti-melanoma CTL from melanoma patient PBMC by peptide-pulsed autologous DC, lysis of Mel 624; format: cell-based, human; settings: for Patient PBL Response (responders/patients): lysis of Mel 624 >20% at E:T 10:1, >80% inhibited by BB7.2
# Source text: Heparinized peripheral blood was obtained by venipuncture from 15 HLA-A2^+ normal donors and 10 HLA-A2^+ donors with AJCC Stage III or IV melanoma treated at the University of Pittsburgh Cancer Institute/University of Pittsburgh School of Medicine. Peripheral blood mononuclear cells ("PBMC") were obtained after density centrifugation on Ficoll-Hypaque gradients per the manufacturer's protocol (LSM, Organon-Teknika, Durham, N.C.). […] Non-adherent cells were frozen in liquid nitrogen in 90% fetal bovine serum/10% DMSO and were retained as T cell enriched responder populations. Plastic adherent cells were cultured for 5-7 days in AIM-V medium supplemented with 1000 U rIL-4/ml+1000 U rGM-CSF/ml at 37° C., 5% CO2 and served as the source of autologous dendritic cells. No medium was added or removed during this culture period. […] Gradient interface cells were harvested, washed with HBSS, and used in phenotypic and functional assays, as outlined below. Cells generated in this way were determined to be greater than 90% DC based on morphology and the expression of a CD1a+, CD1b+, CD1c+, CD3-, CD14-, CD16-, CD20-, CD40+, CD80+, CD83+, CD86+, MHC class II+phenotype assessed by flow cytometry.
# as §1, §2
# Autologous, cultured d7 IL-4+GM-CSF PB-DC were pulsed with the indicated peptides for 2h at room temperature prior to washing and use as stimulators for CTL induction in vitro. […] 12 HLA-A2+ normal donors and 10 HLA-A2+ patients with metastatic melanoma were screened.
# In parallel experiments, PBMC derived from 10 patients diagnosed with AJCC stage III or IV melanoma were stimulated with autologous DC pulsed with these same series of peptides.
# CTL clone A42 = settings: CTL clone A42, data not shown
# TIL 5403 = settings: TIL 5403, data not shown
# TIL 1235 = settings: TIL 1235, data not shown
# A42-clone = settings: read-out: half-maximal sensitization for lysis, T2, E:T 10:1
# Procedure: (§3) Peptide loading was facilitated by the presence of the β2 -m and MA2.1 reagents as described by Zeh, H. J., et al., Hum. […] The cells were then incubated for 2 hours at room temperature.
# T2 target cells = assay: CTL lysis of p939-pulsed T2 target cells; format: cell-based, human; settings: without exogenous β2 -m and MA2.1
# Procedure: as §3
# GL1 CTL = format: cell-based, human
# HLA-A2 [4] = target: T1, HLA-A2; settings: reported by Cox et al.; cited from earlier work
# MCA205 fibrosarcoma = assay: in vivo therapy of established MCA205 tumors in C57BL/6 mice; parameters: species or system mouse; settings: day 4 (but not day 8) tumor models
# Procedure: Before being used in vaccines, DC were pulsed overnight with crude, unfractionated, acid-eluted peptides derived from relevant tumors or control syngeneic spleens. Peptide-pulsed DC were extensively washed and then irradiated (3,000 rads) before i.v. injection in the tail vein of tumor-bearing animals. In the fibrocarcinoma MCA205 and mammary adenocarcinoma TS/A tumor models, animals were injected three to four times, starting at day 4 or day 8 after tumor establishment and subsequently, every 4 days, with 3-5×10^5 DC pulsed with peptides. Alternatively, in the C3 tumor model, animals were injected on days 14, 21, and 28 after initial intradermal (i.d.) tumor inoculation.
# 1 million BM-DC were pulsed with peptides derived from 10^8 to 10^9 cells (tumor or spleen) in a total volume of 1-2 ml of DC media overnight at 37° C., 55 CO2. Splenocytes freshly harvested from B6 animals were used as a cellular source of irrelevant peptides.
# Twice the minimal tumorigenic dose of tumor cells (2×10^5 MCA205, 10^5 TS/A, or 2×10^6 C3) were injected intradermally ("i.d.") in the right flank of mice. […] The mean tumor size was monitored biweekly. […]
# 50 μg of CTLA4-IgG1 was admixed with DC-MCA205 or DC-TS/A in vitro, and the mixture was then administered in the tail vein of tumor-bearing animals (three to four injections every 4 days). […] Depletion of CD4^+ and CD8^+ T cells was monitored by flow cytometry. […]
Molecule,HLA-A2 stabilization / binding (HLA-A2 [1]),Normal PBL Response (responders/donors) (Mel 624 [2]),Patient PBL Response (responders/patients) (Mel 624 [3]),"Peak week of CTL reactivity, Patient PBL (Mel 624 [3]; melanoma patients)","Peak week of CTL reactivity, Normal PBL (Mel 624 [2])",other results
Asp-Gly-Leu-Ala-Pro-Pro-Gln-His-Leu-Ile-Arg (DGLAPPQHLIR) [p53 186-196],stabilized HLA-A2 very poorly,–,–,–,–,–
FLWGPRALV [MAGE-3],–,0/4,1/3,3 wk,–,–
ILTVILGVL [p939],less effective; also recorded: low affinity,9/12,9/10,3-4 wk,3-4 wk,lowest dose with peptide-specific release of interferon-γ (CTL clone A42): 1 pM; recognition and lysis of peptide-pulsed T2 cells (TIL 5403): able to recognize and lyse T2 cells; lowest dose with peptide-specific release of interferon-γ (TIL 1235): 1 pM; EC50 (A42-clone): ~3 nM; CTL reactivity over background (T2 target cells): 5-10%
LLDGTATLRL [gp100 457-466],–,0/12,0/10,–,–,–
Lys-Gly-Ile-Leu-Gly-Phe-Val-Phe--Thr-Leu-Thr-Val [Flu M1],–,–,–,–,–,GL1 lysis of peptide-pulsed HLA-A2+ targets (GL1 CTL): lysed
MLLAVLYCL [Tyrosinase 1-9],–,1/12,0/10,–,–,–
Tyr-Leu-Glu-Pro-Gly-Pro-Val-Thr-Ala [gp100 280-288],comparable,9/12,8/10,3-4 wk,3-4 wk,binding to HLA-A2 (HLA-A2 [4]): intermediate-to-low affinity; lysis of Mel 624 by induced anti-melanoma CTL (Mel 624 [2]): greater than 20%; number of stimulations to induce anti-melanoma CTL (Mel 624 [2]): 2-3 stimulations; immunodominance by kinetics and magnitude of response (Mel 624 [3]; melanoma patients): immunodominant epitopes
YMDGTMSQV [Tyrosinase 368-376],–,7/12,6/10,–,3-4 wk,lysis of Mel 624 by induced anti-melanoma CTL (Mel 624 [2]): greater than 20%; number of stimulations to induce anti-melanoma CTL (Mel 624 [2]): 2-3 stimulations
B1,–,–,–,–,–,therapeutic effect alone (MCA205 fibrosarcoma): beneficial therapeutic effect
